Source: patent US10590140B2, “Tetrahydropyrimidodiazepine and dihydropyridodiazepine compounds for treating pain and pain related conditions” (ESTEVE PHARMACEUTICALS, S.A., priority 2016, dated 2020)

Molecular target: human α2δ-1 subunit of Cav2.2 calcium channel (Homo sapiens (Human), UniProt P54289)
Experiment: Binding assay to human α2δ-1 subunit of Cav2.2 calcium channel ([3H]-Gabapentin)
Conditions: binding to α2δ-1, [3H]-Gabapentin; read-out: Ki (nM) α2δ-1
Summary of the method: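 Radioactivity on dried GF/C filters quantified by scintillation after filtration and three cold Tris-HCl (pH 7.4) washes. Incubation ran 60 min at 27° C with [3H]-gabapentin; 10 μM pregabalin gave nonspecific binding.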

human α2δ-1 subunit of Cav2.2 calcium channel, sequence (P54289 25-1103): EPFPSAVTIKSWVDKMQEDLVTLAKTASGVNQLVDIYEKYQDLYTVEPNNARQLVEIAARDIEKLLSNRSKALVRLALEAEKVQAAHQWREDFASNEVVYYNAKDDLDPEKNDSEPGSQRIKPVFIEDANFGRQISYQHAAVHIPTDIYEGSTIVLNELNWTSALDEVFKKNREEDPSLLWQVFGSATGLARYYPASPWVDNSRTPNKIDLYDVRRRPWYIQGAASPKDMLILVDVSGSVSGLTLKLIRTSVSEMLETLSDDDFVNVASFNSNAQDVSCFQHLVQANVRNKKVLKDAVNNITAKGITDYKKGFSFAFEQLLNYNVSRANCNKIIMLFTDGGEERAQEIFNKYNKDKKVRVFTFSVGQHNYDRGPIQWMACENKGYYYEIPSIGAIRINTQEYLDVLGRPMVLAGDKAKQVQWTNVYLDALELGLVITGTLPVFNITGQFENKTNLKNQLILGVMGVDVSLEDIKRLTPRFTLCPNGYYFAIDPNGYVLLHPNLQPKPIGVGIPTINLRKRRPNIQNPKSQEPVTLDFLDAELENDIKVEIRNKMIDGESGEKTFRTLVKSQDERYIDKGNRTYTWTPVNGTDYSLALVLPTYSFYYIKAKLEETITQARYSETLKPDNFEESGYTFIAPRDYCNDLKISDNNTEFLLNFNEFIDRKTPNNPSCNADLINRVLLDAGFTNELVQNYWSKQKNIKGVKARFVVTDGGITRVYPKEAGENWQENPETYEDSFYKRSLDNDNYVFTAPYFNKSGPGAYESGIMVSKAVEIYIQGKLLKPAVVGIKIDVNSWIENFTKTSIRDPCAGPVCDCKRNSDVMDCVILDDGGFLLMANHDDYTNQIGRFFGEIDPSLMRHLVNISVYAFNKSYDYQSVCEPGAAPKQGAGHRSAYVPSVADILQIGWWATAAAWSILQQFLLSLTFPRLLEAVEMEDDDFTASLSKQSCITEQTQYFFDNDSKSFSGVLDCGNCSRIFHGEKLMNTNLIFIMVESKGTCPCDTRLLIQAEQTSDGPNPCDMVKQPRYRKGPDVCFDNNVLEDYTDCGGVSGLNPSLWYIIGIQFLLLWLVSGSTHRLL

SMILES | Ki
CCNc1ncc2c(n1)N(C)CCN(c1cccc(OCCN(C)C(=O)OC(C)(C)C)c1)C2=O [Example 90, tert-butyl (2-(3-(2-(ethylamino)-9-methyl-5-oxo-5,7,8,9-tetrahydro-6H-pyrimido[4,5-e][1,4]diazepin-6-yl)phenoxy)ethyl) (methyl)carbamate] | > 3000 nM
CCN1CCN(Cc2ccc(O[C@@H](CCNC)c3cccs3)cc2)C(=O)c2cnc(OC)nc21 [Example 395] | 100 to 500 nM
CCNc1ncc2c(n1)N(CC)CCN(c1cccc(-c3nnc(C)o3)c1)C2=O [Example 107, 9-ethyl-2-(ethylamino)-6-(3-(5-methyl-1,3,4-oxadiazol-2-yl)phenyl)-6,7,8,9-tetrahydro-5H-pyrimido[4,5-e][1,4]diazepin-5-one] | 100 to 500 nM
CCNc1cc2c(cn1)C(=O)N(c1cccc(COC(CCNC)c3cccs3)c1)CCN2C (centres unmarked) [Example 228, 8-(ethylamino)-1-methyl-4-(3-((3-(methylamino)-1-(thiophen-2-yl)propoxy)methyl)phenyl)-1,2,3,4-tetrahydro-5H-pyrido[4,3-e][1,4]diazepin-5-one] | 100 to 500 nM
CSc1ncc2c(n1)N(C)CCN(c1cccc(OC(CN(C)C(=O)OC(C)(C)C)C(C)C)c1)C2=O (centres unmarked) [Example 7, tert-butyl methyl(3-methyl-2-(3-(9-methyl-2-(methylthio)-5-oxo-5,7,8,9-tetrahydro-6H-pyrimido[4,5-e][1,4]diazepin-6-yl)phenoxy)butyl) carbamate] | > 3000 nM
CN(CCC(Oc1cccc(N2CCN(C)c3ncncc3C2=O)c1)c1cccs1)C(=O)OCC[Si](C)(C)C (centres unmarked) [Example 147, 2-(trimethylsilyl)ethyl methyl(3-(3-(9-methyl-5-oxo-5,7,8,9-tetrahydro-6H-pyrimido[4,5-e][1,4]diazepin-6-yl)phenoxy)-3-(thiophen-2-yl)propyl)carbamate] | > 3000 nM
CCNc1ncc2c(n1)N(C)CCN(c1cccc(COC(CCNCCF)c3cccs3)c1)C2=O (centres unmarked) [Example 345, 2-(ethylamino)-6-(3-((3-((2-fluoroethyl)amino)-1-(thiophen-2-yl)propoxy)methyl)phenyl)-9-methyl-6,7,8,9-tetrahydro-5H-pyrimido[4,5-e][1,4]diazepin-5-one] | 100 to 500 nM
CN(CCC(Oc1cccc(N2CCN(C)c3nc(N(C)C)ncc3C2=O)c1)c1cccs1)C(=O)OCC[Si](C)(C)C (centres unmarked) [Example 133, 2-(trimethylsilyl)ethyl (3-(3-(2-(dimethylamino)-9-methyl-5-oxo-5,7,8,9-tetrahydro-6H-pyrimido[4,5-e][1,4]diazepin-6-yl)phenoxy)-3-(thiophen-2-yl)propyl)(methyl) carbamate] | > 3000 nM
CSc1ncc2c(n1)N(C)CCN(c1cccc(O[C@H](CCN(C)C(=O)OC(C)(C)C)c3cccs3)c1)C2=O [Example 13, tert-butyl (R)-methyl(3-(3-(9-methyl-2-(methylthio)-5-oxo-5,7,8,9-tetrahydro-6H-pyrimido[4,5-e] [1,4]diazepin-6-yl)phenoxy)-3-(thiophen-2-yl)propyl) carbamate] | > 3000 nM
CCNc1ncc2c(n1)N(C)CCN(c1cccc(O[C@H](CCN(C)C(=O)OC(C)(C)C)c3cccs3)c1)C2=O [Example 81, tert-butyl (R)-(3-(3-(2-(ethylamino)-9-methyl-5-oxo-5,7,8,9-tetrahydro-6H-pyrimido[4,5-e][1,4]diazepin-6-yl)phenoxy)-3-(thiophen-2-yl)propyl)(methyl) carbamate] | > 3000 nM
CCNc1ncc2c(n1)N(C)CCN(c1cccc(-n3cc(CN)nn3)c1)C2=O [Example 181, 6-(3-(4-(aminomethyl)-1H-1,2,3-triazol-1-yl)phenyl)-2-(ethylamino)-9-methyl-6,7,8,9-tetrahydro-5H-pyrimido[4,5-e][1,4]diazepin-5-one] | 100 to 500 nM
CCNc1ncc2c(n1)N(C)CCN(c1cccc(-n3cnc(CN4CCC(c5cccc(O)c5)(N(C)C)CC4)c3)c1)C2=O [Example 296, 6-(3-(4-((4-(dimethylamino)-4-(3-hydroxyphenyl)piperidin-1-yl)methyl)-1H-imidazol-1-yl)phenyl)-2-(ethylamino)-9-methyl-6,7,8,9-tetrahydro-5H-pyrimido[4,5-e][1,4]diazepin-5-one] | 500 to 3000 nM
CCNc1ncc2c(n1)N(C)CCN(c1cccc(OC(CNC)C(C)C)c1)C2=O (centres unmarked) [Example 158, 2-(ethylamino)-9-methyl-6-(3-((3-methyl-1-(methylamino)butan-2-yl)oxy)phenyl)-6,7,8,9-tetrahydro-5H-pyrimido[4,5-e][1,4]diazepin-5-one] | 500 to 3000 nM
CSc1ncc2c(n1)N(C)CCN(c1cccc(-n3cc(CN(C)C(=O)OC(C)(C)C)nn3)c1)C2=O [Example 39, tert-butyl methyl((1-(3-(9-methyl-2-(methylthio)-5-oxo-5,7,8,9-tetrahydro-6H-pyrimido[4,5-e][1,4]diazepin-6-yl)phenyl)-1H-1,2,3-triazol-4-yl)methyl) carbamate] | > 3000 nM

Now from value to molecule:

Ki | SMILES
> 3000 nM | CN(CC[C@@H](OCc1cccc(N2CCN(C)c3ncncc3C2=O)c1)c1ccccc1)C(=O)OC(C)(C)C [Example 145, tert-Butyl (R)-methyl(3-((3-(9-methyl-5-oxo-5,7,8,9-tetrahydro-6H-pyrimido[4,5-e][1,4]diazepin-6-yl)benzyl)oxy)-3-phenylpropyl)carbamate]
500 to 3000 nM | CCNc1ncc2c(n1)N(C)CCN(c1cccc(OC(C)CNC)c1)C2=O (centres unmarked) [Example 157, 2-(ethylamino)-9-methyl-6-(3-((1-(methylamino)propan-2-yl)oxy)phenyl)-6,7,8,9-tetrahydro-5H-pyrimido[4,5-e][1,4]diazepin-5-one]
> 3000 nM | CSc1ncc2c(n1)N(C)CCN(c1cccc(CO[C@@H](CCN(C)C(=O)OC(C)(C)C)c3cccs3)c1)C2=O [Example 17, tert-butyl (S)-methyl(3-((3-(9-methyl-2-(methylthio)-5-oxo-5,7,8,9-tetrahydro-6H-pyrimido[4,5-e][1,4]diazepin-6-yl)benzyl)oxy)-3-(thiophen-2-yl)propyl) carbamate]
500 to 3000 nM | CCNc1ncc2c(n1)N(C)CCN(c1cccc(-n3cc(CN(C)CCOCCO)nn3)c1)C2=O [Example 273, 2-(ethylamino)-6-(3-(4-(((2-(2-hydroxyethoxy)ethyl) (methyl)amino)methyl)-1H-1,2,3-triazol-1-yl)phenyl)-9-methyl-6,7,8,9-tetrahydro-5H-pyrimido[4,5-e][1,4]diazepin-5-one]
100 to 500 nM | CCNCc1cn(-c2cccc(N3CCN(C)c4nc(NCC)ncc4C3=O)c2)nn1 [Example 286, 2-(ethylamino)-6-(3-(4-((ethylamino)methyl)-1H-1,2,3-triazol-1-yl)phenyl)-9-methyl-6,7,8,9-tetrahydro-5H-pyrimido[4,5-e] [1,4]diazepin-5-one]
100 to 500 nM | CCNc1ncc2c(n1)N(C)CCN(c1cccc(C3CCN(Cc4ccccc4)CC3)c1)C2=O [Example 259, 6-(3-(1-benzylpiperidin-4-yl)phenyl)-2-(ethylamino)-9-methyl-6,7,8,9-tetrahydro-5H-pyrimido[4,5-e][1,4]diazepin-5-one]
500 to 3000 nM | CCNc1ncc2c(n1)N(C)CCN(c1cccc(COC(CCNC)C(C)C)c1)C2=O (centres unmarked) [Example 189, 2-(ethylamino)-9-methyl-6-(3-(((4-methyl-1-(methylamino)pentan-3-yl)oxy)methyl)phenyl)-6,7,8,9-tetrahydro-5H-pyrimido[4,5-e][1,4]diazepin-5-one]
> 3000 nM | CSc1ncc2c(n1)N(C)CCN(c1cccc(-n3cc(CNC(=O)OC(C)(C)C)nn3)c1)C2=O [Example 40, tert-butyl ((1-(3-(9-methyl-2-(methylthio)-5-oxo-5,7,8,9-tetrahydro-6H-pyrimido[4,5-e][1,4]diazepin-6-yl)phenyl)-1H-1,2,3-triazol-4-yl)methyl) carbamate]
> 3000 nM | CCNc1ncc2c(n1)N(C)CCN(c1cccc(CCO)c1)C2=O [Example 113, 2-(ethylamino)-6-(3-(2-hydroxyethyl)phenyl)-9-methyl-6,7,8,9-tetrahydro-5H-pyrimido[4,5-e][1,4]diazepin-5-one]
500 to 3000 nM | CCNc1ncc2c(n1)N(C)CCN(c1cccc(Cn3cc(CN(C)Cc4ccccc4)nn3)c1)C2=O [Example 250, 6-(3-((4-((benzyl (methyl)amino)methyl)-1H-1,2,3-triazol-1-yl)methyl)phenyl)-2-(ethylamino)-9-methyl-6,7,8,9-tetrahydro-5H-pyrimido[4,5-e][1,4]diazepin-5-one]
500 to 3000 nM | CCNc1ncc2c(n1)N(C)CCN(Cc1ccc(CNC)cc1)C2=O [Example 202, 2-(ethylamino)-9-methyl-6-(4-((methylamino)methyl)benzyl)-6,7,8,9-tetrahydro-5H-pyrimido[4,5-e][1,4]diazepin-5-one]
> 3000 nM | CCNc1ncc2c(n1)N(C)CCN(c1ccccc1OC(CCN(C)C(=O)OC(C)(C)C)c1ccccc1)C2=O (centres unmarked) [Example 125, tert-butyl (3-(2-(2-(ethylamino)-9-methyl-5-oxo-5,7,8,9-tetrahydro-6H-pyrimido[4,5-e][1,4]diazepin-6-yl)phenoxy)-3-phenylpropyl)(methyl) carbamate]
> 3000 nM | CCNc1ncc2c(n1)N(C)CCN(c1cccc(OC(CCN(C)C(=O)OC(C)(C)C)c3ccccc3)c1)C2=O (centres unmarked) [Example 69, tert-Butyl (3-(3-(2-(ethylamino)-9-methyl-5-oxo-5,7,8,9-tetrahydro-6H-pyrimido[4,5-e][1,4]diazepin-6-yl)phenoxy)-3-phenylpropyl)(methyl)carbamate]
> 3000 nM | CSc1ncc2c(n1)N(C)CCN(c1cccc(O[C@@H](CCN(C)C(=O)OC(C)(C)C)c3ccccc3)c1)C2=O [Example 3, tert-butyl (S)-methyl(3-(3-(9-methyl-2-(methylthio)-5-oxo-5,7,8,9-tetrahydro-6H-pyrimido[4,5-e][1,4]diazepin-6-yl)phenoxy)-3-phenylpropyl) carbamate]
> 3000 nM | CCNc1ncc2c(n1)N(C)CCN(c1cccc(O[C@H](CCN(C)C(=O)OC(C)(C)C)c3ccccc3)c1)C2=O [Example 70, tert-butyl (R)-(3-(3-(2-(ethylamino)-9-methyl-5-oxo-5,7,8,9-tetrahydro-6H-pyrimido[4,5-e][1,4]diazepin-6-yl)phenoxy)-3-phenylpropyl)(methyl) carbamate]
